Source: ChEMBL document CHEMBL1201862, “PubChem BioAssay data set” (2004)
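How tested: cells in 96-well plates exposed to compound for 48 hours at five concentrations. The concentration for 50% growth inhibition is given as GI50.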 Active and inactive are the calls of the source. Cut-off read from the data, not from the text of the source: active = GI50 up to about 1.1 µM and inactive = higher.

Experiments:
Experiment in all cases: growth of human tumour cells (NCI), 48 h
A549 = system: A549
OVCAR-3 = system: OVCAR-3
786-0 = system: 786-0
DLD-1 = system: DLD-1
SNB-78 = system: SNB-78
XF498 = system: XF498
M19-MEL = system: M19-MEL
TK-10 = system: TK-10
KM-20L2 = system: KM-20L2
LXFL 529 = system: LXFL 529
SW-620 = system: SW-620
UACC-257 = system: UACC-257
SN12C = system: SN12C
DMS-114 = system: DMS-114
UO-31 = system: UO-31
SR = system: SR

Measured: GI50

Cc1cc(C)c(C2=NO[C@@H]3C(=O)N(c4ccc(Cc5ccc(N6C(=O)[C@H]7C(c8c(C)cc(C)cc8C)=NO[C@H]7C6=O)cc5)cc4)C(=O)[C@H]23)c(C)c1
inactive: A549 > 100 µM | OVCAR-3 > 100 µM | 786-0 > 100 µM | DLD-1 > 100 µM | SNB-78 > 100 µM | XF498 > 100 µM | M19-MEL > 100 µM | TK-10 > 100 µM | KM-20L2 > 100 µM | LXFL 529 > 100 µM | SW-620 > 100 µM | UACC-257 68.4 µM | SN12C > 100 µM | DMS-114 > 100 µM | UO-31 > 100 µM

C=C1C[C@@H]2C[C@@H](C)CC(O)[C@]2(CCCN)C1O (stereo partly specified)
inactive: SR > 100 µM | A549 > 100 µM | OVCAR-3 > 100 µM | 786-0 > 100 µM | DLD-1 > 100 µM | SNB-78 > 100 µM | XF498 > 100 µM | M19-MEL > 100 µM | TK-10 > 100 µM | KM-20L2 > 100 µM | LXFL 529 > 100 µM | SW-620 > 100 µM | UACC-257 > 100 µM | SN12C > 100 µM | DMS-114 > 100 µM | UO-31 > 100 µM
